Experimental data from patent publication US20130252247A1, “KIT FOR SCREENING FOR SKIN-ACTIVATING SUBSTANCES AND COMPRISING THE KLOTHO GENE, AND METHOD FOR SCREENING FOR SKIN-ACTIVATING SUBSTANCES USING THE SAME” (Amorepacific Corporation, priority 2011, published 2013).

Tested on: Klotho
Assay: Klotho expression in keratinocytes treated with retinoic acid and retinol, quantitative real-time PCR
Format: cell-based, human
Method: In order to examine whether Klotho protein is expressed in skin cells, primers of SEQ ID NOS: 1 and 2, which can amplify Klotho gene (NCBI accession No. NM-004795), were constructed. Then, RT-PCR was performed using the primer set and a probe of SEQ ID NO: 3 (TaqMan™ fluorogenic probe) in order to detect Klotho mRNA in the cDNA of keratinocytes (NHK), fibroblasts (NHF), NHM-promoblack (Normal Human Epidermal Melanocytes (NHEM) juvenile foreskin, Promocell: melanocytes derived from dark-skinned persons), NHM-DP (NHM-dark pigment, Invitrogen: melanocytes derived from dark-skinned persons) and NHM-MP (NHM-moderate pigment, Invitrogen: melanocytes derived from Asian). The PCR reaction was performed for 35 cycles, each consisting of denaturation at 94° C. for 30 sec, annealing at 55° C. for 30 sec, and extension at 72° C. for 60 sec. As a positive control, the cDNA of human embryonic kidney cells (HEK293) known to express Klotho gene was used.
In order to examine the effects of retinoic acid and retinol (known as anti-aging substances) on the expression of Klotho in keratinocytes, quantitative real time PCR was performed under the same conditions as described in Test Example 1, and the expression levels of Klotho protein were examined at 2 days and 8 days after treatment of the cells with each of 0.1 μM and 1 μM of retinoic acid and 1 μM and 10 μM of retinol.

CC1=C(/C=C/C(C)=C/C=C/C(C)=C/CO)C(C)(C)CCC1 [retinol]
expression level of Klotho protein (keratinocytes, 8 days after treatment, 0.1 μM and 1 μM retinoic acid, 1 μM and 10 μM retinol, FIG. 3): significantly increased
expression of Klotho protein (summary statement, found using the kit): increased
